Assay results published in PMC6222646, “HIV-1 Integrase-Targeted Short Peptides Derived from a Viral Protein R Sequence” (Molecules : A Journal of Synthetic Chemistry and Natural …, 2018).
Where a SMILES comes first, the peptide text is derived from it.

How the values were obtained:
HIV-1 integrase (IN) [1] = biological target: T1, HIV-1 integrase (IN) (Human immunodeficiency virus type 1 group M subtype B, UniProt P12497); assay: In vitro integrase catalytic assay, strand transfer (ST); assay type: biochemical; details: 400 nM IN, 20 nM 32P-labeled pre-cleaved 19T/21B DNA, 37 °C, 2 h
Protocol: (§1) IN reactions were performed as previously described. […] Reactions were performed at 37 °C (2 h) and quenched by the addition of an equal volume of loading buffer (formamide containing 1% sodium dodecyl sulfate, 0.25% bromophenol blue, and xylene cyanol). Reaction products were separated in 16% polyacrylamide denaturing sequencing gels. Dried gels were visualized using a Typhoon 8600 instrument (GE Healthcare, Chicago, IL, USA). Densitometric analyses were performed using ImageQuant 5.1 software (GE Healthcare, Chicago, IL, USA). Data analyses (linear regression, 50% inhibitory concentration [IC50] determination, standard deviation [SD]) were performed from at least 3 independent determinations using Prism 5.0c software from GraphPad (La Jolla, CA, USA). To assay 3′-P inhibitory potency, reactions were carried out with [γ-^32P]-labeled full-length oligonucleotide 21T ([…]) annealed to the complementary oligonucleotide 21B ([…]). Formation of the shorter processed 19T products was monitored and quantified to assess enzyme performance and inhibitor potency. The ST reactions were carried out with the [γ-^32P]-labeled pre-cleaved oligonucleotide 19T ([…]) annealed to the complementary oligonucleotide 21B ([…]) and formation of integration products (longer and slower migrating than the starting 19T substrate) was monitored to assess enzyme performance and inhibitor potency.

HIV-1 integrase (IN) [2] = biological target: T1, HIV-1 integrase (IN); assay: In vitro integrase catalytic assay, 3'-processing (3'-P); assay type: biochemical; details: 400 nM IN, 20 nM 32P-labeled 21T/21B DNA, 37 °C, 2 h
Protocol: as §1

SMILES | IC50 (HIV-1 integrase (IN) [1]) | IC50 (HIV-1 integrase (IN) [2])
CC[C@H](C)[C@H](NC(=O)[C@H](CCCNC(=N)N)NC(=O)[C@H](Cc1ccccc1)NC(=O)[C@H](Cc1c[nH]cn1)NC(=O)[C@@H](NC(=O)[C@@H](N)Cc1ccccc1)[C@@H](C)CC)C(=O)NCC(N)=O [Peptide 1b, FIHFRIG-amide] (H-FIHFRIG-NH2) | 7.3 ± 0.8 µM | 31.5 ± 6 µM
CC[C@H](C)[C@H](NC(=O)[C@H](CCCNC(=N)N)NC(=O)[C@H](Cc1ccccc1)NC(=O)[C@H](Cc1c[nH]cn1)NC(=O)[C@@H](NC(=O)[C@H](Cc1ccccc1)NC(C)=O)[C@@H](C)CC)C(=O)NCC(N)=O [Peptide 1c, Ac-FIHFRIG-amide] (Ac-FIHFRIG-NH2) | 4.7 ± 0.3 µM | 23.5 ± 3 µM
CC[C@H](C)[C@H](NC(=O)[C@H](CCCNC(=N)N)NC(=O)[C@H](Cc1ccccc1)NC(=O)[C@H](Cc1c[nH]cn1)NC(=O)[C@@H](NC(=O)[C@@H](N)Cc1ccccc1)[C@@H](C)CC)C(=O)N[C@@H](C)C(=O)O [Peptide 2a, FIHFRIA] (H-FIHFRIA-OH) | 34.7 ± 2.3 µM | > 111 µM
CC[C@H](C)[C@H](NC(=O)[C@H](CCCNC(=N)N)NC(=O)[C@H](Cc1ccccc1)NC(=O)[C@H](Cc1c[nH]cn1)NC(=O)[C@@H](NC(=O)[C@@H](N)Cc1ccccc1)[C@@H](C)CC)C(=O)N[C@@H](C)C(N)=O [Peptide 2b, FIHFRIA-amide] (H-FIHFRIA-NH2) | 60.6 ± 8 µM | > 111 µM
CC[C@H](C)[C@H](NC(=O)[C@H](CCCNC(=N)N)NC(=O)[C@H](Cc1ccccc1)NC(=O)[C@H](Cc1c[nH]cn1)NC(=O)[C@@H](NC(=O)[C@H](Cc1ccccc1)NC(C)=O)[C@@H](C)CC)C(=O)N[C@@H](C)C(N)=O [Peptide 2c, Ac-FIHFRIA-amide] (Ac-FIHFRIA-NH2) | 30.4 ± 0.7 µM | 74.5 ± 7 µM
CC[C@H](C)[C@H](NC(=O)[C@@H](N)Cc1ccccc1)C(=O)N[C@@H](Cc1c[nH]cn1)C(=O)N[C@@H](Cc1ccccc1)C(=O)N[C@@H](CCCNC(=N)N)C(=O)N[C@@H](C)C(=O)NCC(=O)O [Peptide 3a, FIHFRAG] (H-FIHFRAG-OH) | 22.4 ± 1.7 µM | 66.5 ± 7 µM
CC[C@H](C)[C@H](NC(=O)[C@@H](N)Cc1ccccc1)C(=O)N[C@@H](Cc1c[nH]cn1)C(=O)N[C@@H](Cc1ccccc1)C(=O)N[C@@H](CCCNC(=N)N)C(=O)N[C@@H](C)C(=O)NCC(N)=O [Peptide 3b, FIHFRAG-amide] (H-FIHFRAG-NH2) | > 111 µM | > 111 µM
CC[C@H](C)[C@H](NC(=O)[C@H](Cc1ccccc1)NC(C)=O)C(=O)N[C@@H](Cc1c[nH]cn1)C(=O)N[C@@H](Cc1ccccc1)C(=O)N[C@@H](CCCNC(=N)N)C(=O)N[C@@H](C)C(=O)NCC(N)=O [Peptide 3c, Ac-FIHFRAG-amide] (Ac-FIHFRAG-NH2) | 28 ± 4 µM | 208 ± 12 µM
CC[C@H](C)[C@H](NC(=O)[C@H](C)NC(=O)[C@H](Cc1ccccc1)NC(=O)[C@H](Cc1c[nH]cn1)NC(=O)[C@@H](NC(=O)[C@@H](N)Cc1ccccc1)[C@@H](C)CC)C(=O)NCC(=O)O [Peptide 4a, FIHFAIG] (H-FIHFAIG-OH) | > 111 µM | > 111 µM
CC[C@H](C)[C@H](NC(=O)[C@H](C)NC(=O)[C@H](Cc1ccccc1)NC(=O)[C@H](Cc1c[nH]cn1)NC(=O)[C@@H](NC(=O)[C@@H](N)Cc1ccccc1)[C@@H](C)CC)C(=O)NCC(N)=O [Peptide 4b, FIHFAIG-amide] (H-FIHFAIG-NH2) | > 111 µM | > 111 µM
CC[C@H](C)[C@H](NC(=O)[C@H](C)NC(=O)[C@H](Cc1ccccc1)NC(=O)[C@H](Cc1c[nH]cn1)NC(=O)[C@@H](NC(=O)[C@H](Cc1ccccc1)NC(C)=O)[C@@H](C)CC)C(=O)NCC(N)=O [Peptide 4c, Ac-FIHFAIG-amide] (Ac-FIHFAIG-NH2) | 81 ± 9 µM | > 333 µM
CC[C@H](C)[C@H](NC(=O)[C@H](CCCNC(=N)N)NC(=O)[C@H](C)NC(=O)[C@H](Cc1c[nH]cn1)NC(=O)[C@@H](NC(=O)[C@@H](N)Cc1ccccc1)[C@@H](C)CC)C(=O)NCC(=O)O [Peptide 5a, FIHARIG] (H-FIHARIG-OH) | 46.6 ± 6.5 µM | > 111 µM
